ChEMBL document CHEMBL5291721, “A preclinical secondary pharmacology resource illuminates target-adverse drug reaction associations of marketed drugs” (Nat Commun, 2023)

Key:
[1] = target: T1, Oxysterols receptor LXR-alpha (Homo sapiens, UniProt Q13133); type: functional
T1 sequence (Q13133 whole entry): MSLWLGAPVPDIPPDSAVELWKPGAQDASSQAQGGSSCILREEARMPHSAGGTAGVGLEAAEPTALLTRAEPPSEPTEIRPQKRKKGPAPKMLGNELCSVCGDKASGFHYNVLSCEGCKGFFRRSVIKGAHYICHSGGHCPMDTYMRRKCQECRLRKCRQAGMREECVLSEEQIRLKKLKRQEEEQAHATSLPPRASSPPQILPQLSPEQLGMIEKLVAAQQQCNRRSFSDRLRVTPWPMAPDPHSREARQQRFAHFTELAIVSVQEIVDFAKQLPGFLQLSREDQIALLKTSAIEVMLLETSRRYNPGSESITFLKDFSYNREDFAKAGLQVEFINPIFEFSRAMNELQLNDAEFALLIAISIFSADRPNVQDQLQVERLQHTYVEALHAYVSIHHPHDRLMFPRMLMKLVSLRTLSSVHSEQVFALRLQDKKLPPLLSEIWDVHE

[2] = target: T2, Retinoic acid receptor beta (Homo sapiens, UniProt P10826); type: functional, cell-based
T2 sequence (P10826 whole entry): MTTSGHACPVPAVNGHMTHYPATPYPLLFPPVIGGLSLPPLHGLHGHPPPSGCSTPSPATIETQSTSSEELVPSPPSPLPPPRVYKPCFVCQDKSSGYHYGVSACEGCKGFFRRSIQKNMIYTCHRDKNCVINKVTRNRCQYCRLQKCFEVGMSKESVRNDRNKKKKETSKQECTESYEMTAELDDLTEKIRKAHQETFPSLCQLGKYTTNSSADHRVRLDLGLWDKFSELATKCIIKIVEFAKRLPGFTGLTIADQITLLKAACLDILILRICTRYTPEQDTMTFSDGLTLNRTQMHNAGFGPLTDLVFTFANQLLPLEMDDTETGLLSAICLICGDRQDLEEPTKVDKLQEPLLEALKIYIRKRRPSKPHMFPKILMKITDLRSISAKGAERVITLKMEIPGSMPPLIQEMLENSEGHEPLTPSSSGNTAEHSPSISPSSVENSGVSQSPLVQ

[3] = target: T3, Bile acid receptor (Homo sapiens, UniProt Q96RI1); type: functional
T3 sequence (Q96RI1 whole entry): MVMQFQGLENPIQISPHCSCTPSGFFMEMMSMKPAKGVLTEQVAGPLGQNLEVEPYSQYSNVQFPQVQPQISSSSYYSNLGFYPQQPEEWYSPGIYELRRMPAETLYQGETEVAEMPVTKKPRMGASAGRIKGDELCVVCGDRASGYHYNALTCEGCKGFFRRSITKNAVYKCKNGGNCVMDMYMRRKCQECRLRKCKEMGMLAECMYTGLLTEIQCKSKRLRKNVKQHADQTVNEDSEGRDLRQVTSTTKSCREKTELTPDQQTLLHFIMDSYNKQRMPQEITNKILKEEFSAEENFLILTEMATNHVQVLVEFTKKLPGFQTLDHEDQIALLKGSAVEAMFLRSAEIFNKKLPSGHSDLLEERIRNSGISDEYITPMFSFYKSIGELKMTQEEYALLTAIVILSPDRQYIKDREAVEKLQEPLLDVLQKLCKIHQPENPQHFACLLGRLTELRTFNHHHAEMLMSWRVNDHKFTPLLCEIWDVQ

[4] = target: T4, Retinoic acid receptor gamma (Homo sapiens, UniProt P13631); type: functional, cell-based
T4 sequence (P13631 whole entry): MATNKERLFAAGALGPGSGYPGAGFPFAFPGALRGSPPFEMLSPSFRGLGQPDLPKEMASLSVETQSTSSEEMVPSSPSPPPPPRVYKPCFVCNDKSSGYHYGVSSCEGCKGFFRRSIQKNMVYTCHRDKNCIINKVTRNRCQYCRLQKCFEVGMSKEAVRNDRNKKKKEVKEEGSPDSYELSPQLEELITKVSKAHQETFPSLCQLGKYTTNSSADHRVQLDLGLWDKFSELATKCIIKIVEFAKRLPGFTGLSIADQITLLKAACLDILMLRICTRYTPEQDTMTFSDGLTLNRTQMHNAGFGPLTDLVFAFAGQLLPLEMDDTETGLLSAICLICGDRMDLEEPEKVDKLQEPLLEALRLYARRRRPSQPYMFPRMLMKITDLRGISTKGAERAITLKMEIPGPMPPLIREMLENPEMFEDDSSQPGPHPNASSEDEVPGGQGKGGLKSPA

[5] = target: T2, Retinoic acid receptor beta; type: functional, cell-based; remark: listed apart in the source
[6] = target: T3, Bile acid receptor; type: functional; remark: listed apart in the source
[7] = target: T5, Retinoic acid receptor alpha (Homo sapiens, UniProt P10276); type: functional, cell-based
T5 sequence (P10276 whole entry): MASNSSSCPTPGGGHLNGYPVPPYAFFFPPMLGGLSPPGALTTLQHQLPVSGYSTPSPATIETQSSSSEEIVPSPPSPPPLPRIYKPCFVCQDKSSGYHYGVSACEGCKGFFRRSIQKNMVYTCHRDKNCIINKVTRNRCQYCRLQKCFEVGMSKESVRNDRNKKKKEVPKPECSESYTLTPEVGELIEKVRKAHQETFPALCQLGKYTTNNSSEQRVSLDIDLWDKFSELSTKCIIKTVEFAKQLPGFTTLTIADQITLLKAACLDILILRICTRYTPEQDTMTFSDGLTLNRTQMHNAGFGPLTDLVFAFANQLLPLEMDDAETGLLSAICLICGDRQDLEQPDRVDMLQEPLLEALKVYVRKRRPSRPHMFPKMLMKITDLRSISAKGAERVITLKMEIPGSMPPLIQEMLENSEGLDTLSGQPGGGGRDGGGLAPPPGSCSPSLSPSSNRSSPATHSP

[8] = target: T6, Muscarinic acetylcholine receptor M2 (Homo sapiens, UniProt P08172)
T6 sequence (P08172 whole entry): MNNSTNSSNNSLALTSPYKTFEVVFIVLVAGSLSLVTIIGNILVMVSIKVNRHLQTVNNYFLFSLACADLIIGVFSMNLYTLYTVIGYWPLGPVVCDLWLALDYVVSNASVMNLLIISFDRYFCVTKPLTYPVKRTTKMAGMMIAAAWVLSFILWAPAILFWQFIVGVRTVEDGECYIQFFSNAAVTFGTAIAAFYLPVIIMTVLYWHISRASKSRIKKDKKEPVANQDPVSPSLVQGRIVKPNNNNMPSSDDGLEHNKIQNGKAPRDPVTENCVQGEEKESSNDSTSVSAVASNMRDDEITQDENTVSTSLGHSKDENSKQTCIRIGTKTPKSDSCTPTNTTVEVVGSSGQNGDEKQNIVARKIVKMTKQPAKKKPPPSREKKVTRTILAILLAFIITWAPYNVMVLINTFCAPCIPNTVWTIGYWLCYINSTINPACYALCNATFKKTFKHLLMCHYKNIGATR

[9] = target: D(1A) dopamine receptor (Homo sapiens, UniProt P21728)
Chain of D(1A) dopamine receptor (P21728 whole entry): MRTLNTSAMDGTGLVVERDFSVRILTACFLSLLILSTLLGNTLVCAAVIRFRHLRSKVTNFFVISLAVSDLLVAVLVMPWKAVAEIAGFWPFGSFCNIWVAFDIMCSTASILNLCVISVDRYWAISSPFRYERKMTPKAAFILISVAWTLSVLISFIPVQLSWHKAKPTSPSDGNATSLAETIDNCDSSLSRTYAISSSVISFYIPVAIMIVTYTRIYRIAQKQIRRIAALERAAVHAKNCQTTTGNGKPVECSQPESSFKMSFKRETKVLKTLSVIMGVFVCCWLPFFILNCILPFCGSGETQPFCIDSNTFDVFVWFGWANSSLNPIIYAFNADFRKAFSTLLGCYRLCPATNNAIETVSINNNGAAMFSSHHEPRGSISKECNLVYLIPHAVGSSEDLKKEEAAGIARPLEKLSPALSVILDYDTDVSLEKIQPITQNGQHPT
Note: assay procedure not described here.

| Compound | AC50 [1] [µM] | AC50 [2] [µM] | AC50 [3] [µM] | AC50 [4] [µM] | AC50 [5] [µM] | AC50 [6] [µM] | AC50 [7] [µM] | AC50 [8] [µM] | AC50 [9] [µM] |
| --- | --- | --- | --- | --- | --- | --- | --- | --- | --- |
| CN1C(C(=O)Nc2ccccn2)=C(O)c2sc(Cl)cc2S1(=O)=O [LORNOXICAM] | > 30 | > 30 | > 30 | > 30 | > 30 | > 30 | > 30 |  |  |
| Cc1cn([C@H]2C=C[C@@H](CO)O2)c(=O)[nH]c1=O [STAVUDINE] |  |  |  |  |  |  |  | > 30 |  |
| CC[C@H]1OC(=O)[C@H](C)[C@@H](O[C@H]2C[C@@](C)(OC)[C@@H](O)[C@H](C)O2)[C@H](C)[C@@H](O[C@@H]2O[C@H](C)C[C@H](N(C)C)[C@H]2O)[C@](C)(O)C[C@@H](C)CN(C)[C@H](C)[C@@H](O)[C@]1(C)O [AZITHROMYCIN] |  |  |  |  |  |  |  |  | > 30 |
| CCc1oc2ccccc2c1C(=O)c1cc(I)c(O)c(I)c1 [BENZIODARONE] |  |  |  |  |  |  |  |  | > 30 |
| Cc1c(C(=O)NN2CCCCC2)nn(-c2ccc(Cl)cc2Cl)c1-c1ccc(Cl)cc1 [RIMONABANT] | > 30 | > 30 | 14 | > 30 | > 30 | > 30 | > 30 |  |  |
| O=C(OCC(O)CO)c1ccccc1Nc1ccnc2cc(Cl)ccc12 (stereo not drawn) [GLAFENINE] |  |  |  |  |  |  |  | > 30 |  |
